# Values joined by “and” are separate entries in the source; they are usually repeats but may differ in a detail not shown here. Equal entries are not always repeated. Where two headings read alike, the source gives them in different places.
# Legend:
# RPMI-8226 cells = test: Anti-proliferation assay (ATPLite, 72 h), RPMI-8226; format: cell-based
# H929 cells = test: Anti-proliferation assay (ATPLite, 72 h), H929; format: cell-based
# OPM2 cells = test: Anti-proliferation assay (ATPLite, 72 h), OPM2; format: cell-based, human; settings: for synergy score: in combination with CGS-21680, OPM-8
# [1] = test system: Farage (non-Hodgkin's B cell lymphoma) cells; test: Anti-proliferation assay (ATPLite, 72 h), Farage; format: cell-based; settings: x dexamethasone
# [2] = test system: GA-10 (Burkitt's lymphoma) cells; test: Anti-proliferation assay (ATPLite, 72 h), GA-10; format: cell-based; settings: x dexamethasone
# [3] = test system: mantle cell lymphoma cell line Mino; test: Anti-proliferation assay (ATPLite, 72 h), Mino; format: cell-based, human
# Protocol: (§1) All of the cell lines were cultured in RPMI-1640 media supplemented with 10% FBS except OCI Ly10 cells (IMDM media supplemented with 20% human serum). The ANBL-6 cell line culture media also contained 10 ng/ml IL-6. MM.1S, MM.1R, SU-DHL6, Karpas 422, and OCI ly10 cells were provided by the Dana Farber Cancer Institute. ANBL-6 cells were provided by Bob Orlowsli (M.D. Anderson Cancer Research Center). H929, RPMI-8226, GA-10, Farage, Mino, JVM-13, Pfeiffer, Toledo, and Kusami-1 cells were from ATCC (Cat #'s CCL-155, CRL-9068, CRL-2392 CRL-2630, CRL-3000, CRL-3003, CRL-2632, CRL-2631, and CRL-2724 respectively). MOLP-8, OPM2, EJM, and KSM-12-PE cells were from DSMZ.
# (§2) Compounds were prepared in DMSO at 1000× the highest desired concentration. Master plates were generated consisting of serially diluted compounds in 2- or 3-fold dilutions in 384-well format. For single agent dose response curves, the master plates consisted of 9 individual compounds at 12 concentrations in 2- or 3-fold dilutions. For combination matrices, master plates consisted of individual compounds at 6 or 9 concentrations at 2- or 3-fold dilutions.
# (§3) The average untreated well value (avg. untreated wells) is the arithmetic mean of 40 wells from the same assay plate treated with vehicle alone. Negative inhibition values result from local variations in treated wells as compared to untreated wells.
# (§4) The uncertainty of each fitted parameter was estimated from the range over which the change in reduced chi-squared was less than one, or less than minimum reduced chi-squared if that minimum exceeded one, to allow for underestimated σI errors.
# (§5) Single agent curve data were used to define a dilution series for each compound to, be used for combination screening in a 6×6 matrix format. […] For compounds with no detectable single agent activity, a dilution factor of 4 was used, starting from the highest achievable concentration.
# (§6) The Loewe additivity model was used to quantify combination effects. Combinations were ranked initially by Additivity Excess Volume, which is defined as ADD Volume=ΣCX, CY(Idata−ILoewe). where ILoewe(CX,CY) is the inhibition that satisfies (CX/ECX)+(CY/ECY)=1, and ECX,Y are the effective concentrations at ILoewe for the single agent curves. A “Synergy Score” was also used, where the Synergy Score S=log fX log fY ΣIdata (Idata−ILoewe), summed over all non-single-agent concentration pairs, and where log fX,Y is the natural logarithm of the dilution factors used for each single agent.
# [4] = test system: mantle cell lymphoma cell line JVM-13; test: Anti-proliferation assay (ATPLite, 72 h), JVM-13; format: cell-based, human
# Protocol: as §1, §2, §3, §4, §5, §6
# MM.1S cells = test: Anti-proliferation assay (ATPLite, 72 h), MM.1S; settings: for IC50: 2-fold dilutions; for synergy score: in combination with CGS-21680, MM.1S
# MOLP-8 cells = test: Anti-proliferation assay (ATPLite, 72 h), MOLP-8; format: cell-based; settings: in combination with CGS-21680
# EJM cells = test: Anti-proliferation assay (ATPLite, 72 h), EJM; format: cell-based; settings: in combination with CGS-21680
# ANBL-6 cells = test: Anti-proliferation assay (ATPLite, 72 h), ANBL-6; format: cell-based; settings: in combination with CGS-21680
# KSM-12-PE cells = test: Anti-proliferation assay (ATPLite, 72 h), KSM-12-PE; format: cell-based; settings: in combination with CGS-21680; KSM-12-PE
# OCI-ly10 DLBCL cells = test: Anti-proliferation assay (ATPLite, 72 h), OCI-ly10; format: cell-based; settings: in combination with CGS-21680
# Karpas 422 DLBCL cells = test: Anti-proliferation assay (ATPLite, 72 h), Karpas 422; format: cell-based; settings: in combination with CGS-21680
# SU-DHL6 DLBCL cells = test: Anti-proliferation assay (ATPLite, 72 h), SU-DHL6; format: cell-based; settings: in combination with CGS-21680
# [5] = combination with dexamethasone, Loewe-based Synergy Score, 72 h
# [6] = Homo sapiens, MM1.S, read-out: percent inhibition of cell proliferation
compound,measurement,setting,value
"CCCCC#Cc1nc(N)c2ncn([C@@H]3O[C@H](C(=O)NCC)[C@@H](O)[C@H]3O)c2n1 [HE-NECA, hexynyladenosine-5′-N-ethylcarboxamide]","Synergy score with dexamethasone, RPMI-8226",RPMI-8226 cells,17.7
same,"Synergy score with dexamethasone, H929",H929 cells,7.62
same,percent inhibition of cell proliferation,OPM2 cells; HE-NECA 2.5 nM alone,1%
same,percent inhibition of cell proliferation,OPM2 cells; HE-NECA 5 nM alone,2.6%
same,percent inhibition of cell proliferation,OPM2 cells; HE-NECA 10 nM alone,0.4%
same,percent inhibition of cell proliferation,OPM2 cells; HE-NECA 20 nM alone,4.8%
same,synergy score,[1],3.6
same,synergy score,[2],1.64
same,percent inhibition of cell proliferation,[3]; HE-NECA 2.5 nM alone,7.9% and 4.1%
same,percent inhibition of cell proliferation,[3]; HE-NECA 5 nM alone,12%
same,percent inhibition of cell proliferation,[3]; HE-NECA 10 nM alone,10% and 4.7%
same,percent inhibition of cell proliferation,[4]; HE-NECA 2.5 nM alone,−0.9%
same,percent inhibition of cell proliferation,[4]; HE-NECA 5 nM alone,−1.5%
same,percent inhibition of cell proliferation,[4]; HE-NECA 10 nM alone,2.1%
same,percent inhibition of cell proliferation,[4]; HE-NECA 20 nM alone,−9.7%
same,"Synergy score with dexamethasone, MM.1S",MM.1S cells,8.94
same,percent inhibition of cell proliferation,MM.1S cells,46% and 31%
same,percent inhibition of cell proliferation,MM.1S cells; HE-NECA 0.181 nM alone,−0.91%
same,percent inhibition of cell proliferation,MM.1S cells; HE-NECA 0.363 nM alone,9.2%
same,percent inhibition of cell proliferation,MM.1S cells; HE-NECA 0.725 nM alone,11%
same,percent inhibition of cell proliferation,MM.1S cells; HE-NECA 2.9 nM alone,35%
same,percent inhibition of cell proliferation,MM.1S cells; HE-NECA 5.8 nM alone,42%
same,percent inhibition of cell proliferation,MM.1S cells; HE-NECA 23.2 nM alone,51%
same,activity and synergy in antiproliferation assays,"MM.1S cells; RPMI-8226, H929, MM.1S and MM.1R MM cell lines",active and synergistic
same,IC50,"MM.1S cells; read-out: IC50 (+IL-6), MM.1S cells grown in presence of 10 ng/ml IL-6",0.88 nM
same,IC50,"MM.1S cells; read-out: IC50 (no IL-6), MM.1S cells grown in absence of IL-6",6.5 nM
"COc1cc2c(cc1OC)-c1cc(=Nc3c(C)cc(C)cc3C)n(C)c(=O)n1CC2 [Trequinsin, 2,3,6,7-tetrahydro-9,10-dimethoxy-3-methyl-2-((2,4,6-trimethylphenyl)imino)-4H-pyrimido(6,1-a)isoquinolin-4-one]","Synergy score with dexamethasone, RPMI-8226",RPMI-8226 cells; [5],5.76
same,"Synergy score with dexamethasone, H929",H929 cells; [5],2.68
same,synergy score,MOLP-8 cells,4.7
same,synergy score,OPM2 cells,4.74
same,synergy score,EJM cells,4.81
same,synergy score,ANBL-6 cells,4.55
same,synergy score,KSM-12-PE cells,2.44
same,synergy score,OCI-ly10 DLBCL cells,1.64
same,synergy score,Karpas 422 DLBCL cells,2.11
same,synergy score,SU-DHL6 DLBCL cells,0.92
same,inhibition at 0.00462 µM,MM.1S cells; [6],10%
same,inhibition at 0.0139 µM,MM.1S cells; [6],1.4%
same,inhibition at 0.0416 µM,MM.1S cells; [6],5.5%
same,inhibition at 0.374 µM,MM.1S cells; [6],-1.6%
same,inhibition at 1.12 µM,MM.1S cells; [6],-6.1%
same,inhibition at 3.37 µM,MM.1S cells; [6],11%
same,inhibition at 10.1 µM,MM.1S cells; [6],33%
same,"Synergy score with dexamethasone, MM.1S",MM.1S cells; [5],3.21
same,synergy score,MM.1S cells,6.71
O=C(Nc1c(Cl)cncc1Cl)c1ccc(OC(F)F)c(OCC2CC2)c1 [roflumilast],synergy score,MOLP-8 cells,3.44
same,synergy score,OPM2 cells,0.29
same,synergy score,EJM cells,1.06
same,synergy score,ANBL-6 cells,3.73
same,synergy score,KSM-12-PE cells,0.27
same,synergy score,OCI-ly10 DLBCL cells,3.32
same,synergy score,Karpas 422 DLBCL cells,3.38
same,synergy score,SU-DHL6 DLBCL cells,0.93
same,synergy score,MM.1S cells,2.54
